For test [1], the target named is T1, Odorant receptor 29 (AgamOr29) (Anopheles gambiae, UniProt A0A1S4H074).
T1 construct: coding region, expressed with AgamOrco in Xenopus laevis oocytes; with AgamOrco
T1 sequence (A0A1S4H074 1-384): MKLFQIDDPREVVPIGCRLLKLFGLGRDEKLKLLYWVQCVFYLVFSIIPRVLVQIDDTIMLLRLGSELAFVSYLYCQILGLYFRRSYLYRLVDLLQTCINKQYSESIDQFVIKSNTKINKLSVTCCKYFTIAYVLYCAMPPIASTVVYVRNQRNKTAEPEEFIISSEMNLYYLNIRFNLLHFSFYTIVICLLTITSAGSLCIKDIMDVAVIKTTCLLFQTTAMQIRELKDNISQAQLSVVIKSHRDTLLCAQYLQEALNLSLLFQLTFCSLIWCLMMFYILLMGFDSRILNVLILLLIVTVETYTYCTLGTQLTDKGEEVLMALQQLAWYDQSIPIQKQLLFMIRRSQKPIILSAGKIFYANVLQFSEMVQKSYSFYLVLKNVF
T1 sequence (Q7QCC7 1-478 partner): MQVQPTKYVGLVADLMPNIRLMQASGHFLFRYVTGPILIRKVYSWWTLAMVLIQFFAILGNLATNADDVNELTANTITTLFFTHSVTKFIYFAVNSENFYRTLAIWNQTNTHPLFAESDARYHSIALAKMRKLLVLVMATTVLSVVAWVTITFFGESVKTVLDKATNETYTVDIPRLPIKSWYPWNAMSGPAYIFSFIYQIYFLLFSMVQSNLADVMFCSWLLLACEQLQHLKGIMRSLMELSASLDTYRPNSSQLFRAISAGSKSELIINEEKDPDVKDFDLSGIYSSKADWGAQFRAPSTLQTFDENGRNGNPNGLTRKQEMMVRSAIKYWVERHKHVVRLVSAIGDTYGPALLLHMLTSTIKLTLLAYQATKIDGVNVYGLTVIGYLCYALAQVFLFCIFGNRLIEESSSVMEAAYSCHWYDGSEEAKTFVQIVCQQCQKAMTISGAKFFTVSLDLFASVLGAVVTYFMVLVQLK
Briefly: two-electrode voltage clamp of Xenopus oocytes, concentration-response. It is filed as cell-based. From the text:
two-electrode voltage clamp of Xenopus oocytes, concentration-response on Odorant receptor 29 (AgamOr29) | to (R)-(–)-linalool (left)and (+/–) linalool (right).

In test [2] the target is T1, Odorant receptor 29 (AgamOr29). Nature of the test: two-electrode voltage clamp of Xenopus oocytes, single concentration […]. It counts as cell-based. In general terms: Two-electrode voltage clamp is typically applied to oocytes expressing channels or transporters.

Consider three compounds from article PMC6872167, “An odorant receptor from Anopheles gambiae that demonstrates enantioselectivity to the plant volatile, linalool” (PLoS ONE, 2019).

pEC50: −log10 of the molar value.

By pEC50 is commonly meant the EC50 on a negative log10 scale, so that one unit is a factor of ten. Low values mean a high EC50, high ones a low EC50. For the compound `C=CC(C)(O)CCC=C(C)C` (racemic) [(+/–) linalool], in test [1], the pEC50 was ~5.24. Turning to `CCC(C)(O)CCCC(C)C` (stereo not drawn) [tetrahydro linalool], the “two-electrode voltage clamp of Xenopus oocytes, single concentration 10^-4 M” value in test [2] is “tetrahydro linalool elicited a moderate, but repeatable response from AgamOr29, likely due to its structural similarity to linalool”. On to `C=C[C@](C)(O)CCC=C(C)C` [(R)-(–)-linalool], for which the pEC50 in test [1] was ~5.10.
